Source: patent publication US11053204B2, “Pyrimidinyloxy benzene derivatives as herbicides” (FMC Corporation, priority 2015, dated 2021)

Experiments:
Type in all cases: in vivo
[1] = test system: waterhemp (common waterhemp, Amaranthus rudis); assay: Test C preemergence, plant response rating; settings: Preemergence
Procedure, shortened: (§1)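 After sowing in loam–sand blend or silt loam, pots were sprayed preemergence; separately grown 1- to 4-leaf plants were sprayed postemergence. Following 13 to 15 d under greenhouse conditions, injury was rated visually on a 0 to 100 scale.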

[2] = test system: oilseed rape (Brassica napus); assay: Test C preemergence, plant response rating; settings: Preemergence
Procedure, shortened: as §1

[3] = test system: morningglory (Ipomoea coccinea); assay: Test C preemergence, plant response rating; settings: Preemergence
Procedure, shortened: as §1

soybean (Glycine max) [4] = assay: Test C preemergence, plant response rating; settings: Preemergence
Procedure, shortened: as §1

[5] = test system: foxtail, giant (giant foxtail, Setaria faberii); assay: Test C preemergence, plant response rating; settings: Preemergence
Procedure, shortened: as §1

[6] = test system: crabgrass, large (large crabgrass, Digitaria sanguinalis); assay: Test C preemergence, plant response rating; settings: Preemergence
Procedure, shortened: as §1

[7] = test system: ryegrass, Italian (Italian ryegrass, Lolium multiflorum); assay: Test C preemergence, plant response rating; settings: Preemergence
Procedure, shortened: as §1

[8] = test system: nutsedge, yellow (yellow nutsedge, Cyperus esculentus); assay: Test C preemergence, plant response rating; settings: Preemergence
Procedure, shortened: as §1

corn (Zea mays) [9] = assay: Test C preemergence, plant response rating; settings: Preemergence
Procedure, shortened: as §1

[10] = test system: wheat (winter wheat, Triticum aestivum); assay: Test C preemergence, plant response rating; settings: Preemergence
Procedure, shortened: as §1

[11] = test system: velvetleaf (Abutilon theophrasti); assay: Test C preemergence, plant response rating; settings: Preemergence
Procedure, shortened: as §1

[12] = test system: blackgrass (Alopecurus myosuroides); assay: Test C preemergence, plant response rating; settings: Preemergence
Procedure, shortened: as §1

[13] = test system: lambsquarters (Chenopodium album); assay: Test C preemergence, plant response rating; settings: Preemergence
Procedure, shortened: as §1

[14] = test system: waterhemp (common waterhemp, Amaranthus rudis); assay: Test C postemergence, plant response rating
Procedure, shortened: as §1

[15] = test system: oilseed rape (Brassica napus); assay: Test C postemergence, plant response rating; settings: for Oilseed Rape plant response rating: scale 0 to 100 (0 no effect, 100 complete control)
Procedure, shortened: as §1

soybean (Glycine max) [16] = assay: Test C postemergence, plant response rating; settings: for Soybean plant response rating: scale 0 to 100 (0 no effect, 100 complete control)
Procedure, shortened: as §1

kochia (Kochia scoparia) = assay: Test C postemergence, plant response rating; settings: for Kochia plant response rating: scale 0 to 100 (0 no effect, 100 complete control)
Procedure, shortened: as §1

[17] = test system: foxtail, giant (giant foxtail, Setaria faberii); assay: Test C postemergence, plant response rating; settings: for Foxtail, Giant plant response rating: scale 0 to 100 (0 no effect, 100 complete control)
Procedure, shortened: as §1

[18] = test system: crabgrass, large (large crabgrass, Digitaria sanguinalis); assay: Test C postemergence, plant response rating; settings: for Crabgrass, Large plant response rating: scale 0 to 100 (0 no effect, 100 complete control)
Procedure, shortened: as §1

corn (Zea mays) [19] = assay: Test C postemergence, plant response rating; settings: for Corn plant response rating: scale 0 to 100 (0 no effect, 100 complete control)
Procedure, shortened: as §1

[20] = test system: galium (catchweed bedstraw, Galium aparine); assay: Test C postemergence, plant response rating; settings: for Galium plant response rating: scale 0 to 100 (0 no effect, 100 complete control)
Procedure, shortened: as §1

O=C(CCCC(F)(F)F)c1c(Cl)cccc1Oc1ncc(Cl)cn1 [Compound 143]
Plant response rating, Waterhemp ([1]; 125 g ai/ha, scale of 0 to 100): 100
Plant response rating, Waterhemp ([1]; 31 g ai/ha, scale 0 to 100): 98
Plant response rating, Waterhemp ([1]; 62 g ai/ha, scale 0 to 100): 100
Plant response rating, Oilseed Rape ([2]; 125 g ai/ha, scale of 0 to 100): 98
Plant response rating, Oilseed Rape ([2]; 31 g ai/ha, scale 0 to 100): 5
Plant response rating, Oilseed Rape ([2]; 62 g ai/ha, scale 0 to 100): 80
Plant response rating, Morningglory ([3]; 125 g ai/ha, scale of 0 to 100): 25
Plant response rating, Morningglory ([3]; 31 g ai/ha, scale 0 to 100): 0
Plant response rating, Morningglory ([3]; 62 g ai/ha, scale 0 to 100): 5
Plant response rating, Soybean (soybean (Glycine max) [4]; 125 g ai/ha, scale of 0 to 100): 20
Plant response rating, Soybean (soybean (Glycine max) [4]; 31 g ai/ha, scale 0 to 100): 0
Plant response rating, Soybean (soybean (Glycine max) [4]; 62 g ai/ha, scale 0 to 100): 15
Plant response rating, Foxtail, Giant ([5]; 125 g ai/ha, scale of 0 to 100): 100
Plant response rating, Foxtail, Giant ([5]; 31 g ai/ha, scale 0 to 100): 98
Plant response rating, Foxtail, Giant ([5]; 62 g ai/ha, scale 0 to 100): 100
Plant response rating, Crabgrass, Large ([6]; 125 g ai/ha, scale of 0 to 100): 100
Plant response rating, Crabgrass, Large ([6]; 16 g ai/ha, scale 0 to 100): 70
Plant response rating, Crabgrass, Large ([6]; 31 g ai/ha, scale 0 to 100): 100
Plant response rating, Crabgrass, Large ([6]; 62 g ai/ha, scale 0 to 100): 100
Plant response rating, Ryegrass, Italian ([7]; 125 g ai/ha, scale of 0 to 100): 45
Plant response rating, Ryegrass, Italian ([7]; 31 g ai/ha, scale 0 to 100): 20
Plant response rating, Ryegrass, Italian ([7]; 62 g ai/ha, scale 0 to 100): 30
Plant response rating, Nutsedge, Yellow ([8]; 125 g ai/ha, scale of 0 to 100): 5
Plant response rating, Nutsedge, Yellow ([8]; 31 g ai/ha, scale 0 to 100): 0
Plant response rating, Nutsedge, Yellow ([8]; 62 g ai/ha, scale 0 to 100): 0
Plant response rating, Corn (corn (Zea mays) [9]; 125 g ai/ha, scale of 0 to 100): 20
Plant response rating, Corn (corn (Zea mays) [9]; 16 g ai/ha, scale 0 to 100): 5
Plant response rating, Corn (corn (Zea mays) [9]; 31 g ai/ha, scale 0 to 100): 0
Plant response rating, Corn (corn (Zea mays) [9]; 62 g ai/ha, scale 0 to 100): 0
Plant response rating, Wheat ([10]; 125 g ai/ha, scale of 0 to 100): 0
Plant response rating, Wheat ([10]; 31 g ai/ha, scale 0 to 100): 0
Plant response rating, Wheat ([10]; 62 g ai/ha, scale 0 to 100): 0
Plant response rating, Velvetleaf ([11]; 125 g ai/ha, scale of 0 to 100): 70
Plant response rating, Velvetleaf ([11]; 31 g ai/ha, scale 0 to 100): 10
Plant response rating, Velvetleaf ([11]; 62 g ai/ha, scale 0 to 100): 40
Plant response rating, Blackgrass ([12]; 125 g ai/ha, scale of 0 to 100): 75
Plant response rating, Blackgrass ([12]; 16 g ai/ha, scale 0 to 100): 5
Plant response rating, Blackgrass ([12]; 31 g ai/ha, scale 0 to 100): 75
Plant response rating, Blackgrass ([12]; 62 g ai/ha, scale 0 to 100): 80
Plant response rating, Lambsquarters ([13]; 125 g ai/ha, scale of 0 to 100): 95
Plant response rating, Lambsquarters ([13]; 31 g ai/ha, scale 0 to 100): 10
Plant response rating, Lambsquarters ([13]; 62 g ai/ha, scale 0 to 100): 95
Plant response rating, Waterhemp ([14]; 16 g ai/ha, scale of 0 to 100): 75
Plant response rating, Waterhemp ([14]; 31 g ai/ha, scale 0 to 100): 80
Waterhemp plant response rating ([14]; 125 g ai/ha, scale 0 to 100 (0 no effect, 100 complete control)): 90
Plant response rating, Oilseed Rape ([15]; 16 g ai/ha, scale of 0 to 100): 85
Plant response rating, Oilseed Rape ([15]; 31 g ai/ha, scale 0 to 100): 80
Oilseed Rape plant response rating ([15]; 62 g ai/ha): 95
Oilseed Rape plant response rating ([15]; 125 g ai/ha): 100
Plant response rating, Soybean (soybean (Glycine max) [16]; 16 g ai/ha, scale of 0 to 100): 30
Plant response rating, Soybean (soybean (Glycine max) [16]; 31 g ai/ha, scale 0 to 100): 40
Soybean plant response rating (soybean (Glycine max) [16]; 62 g ai/ha): 55
Soybean plant response rating (soybean (Glycine max) [16]; 125 g ai/ha): 65
Plant response rating, Kochia (kochia (Kochia scoparia); 16 g ai/ha, scale of 0 to 100): 98
Plant response rating, Kochia (kochia (Kochia scoparia); 31 g ai/ha, scale 0 to 100): 100
Kochia plant response rating (kochia (Kochia scoparia); 62 g ai/ha): 100
Kochia plant response rating (kochia (Kochia scoparia); 125 g ai/ha): 100
Plant response rating, Foxtail, Giant ([17]; 16 g ai/ha, scale of 0 to 100): 20
Plant response rating, Foxtail, Giant ([17]; 31 g ai/ha, scale 0 to 100): 10
Foxtail, Giant plant response rating ([17]; 62 g ai/ha): 10
Foxtail, Giant plant response rating ([17]; 125 g ai/ha): 25
Plant response rating, Crabgrass, Large ([18]; 16 g ai/ha, scale of 0 to 100): 5
Plant response rating, Crabgrass, Large ([18]; 31 g ai/ha, scale 0 to 100): 5
Crabgrass, Large plant response rating ([18]; 62 g ai/ha): 15
Crabgrass, Large plant response rating ([18]; 125 g ai/ha): 30
Plant response rating, Corn (corn (Zea mays) [19]; 16 g ai/ha, scale of 0 to 100): 15
Plant response rating, Corn (corn (Zea mays) [19]; 31 g ai/ha, scale 0 to 100): 20
Corn plant response rating (corn (Zea mays) [19]; 62 g ai/ha): 20
Corn plant response rating (corn (Zea mays) [19]; 125 g ai/ha): 30
Plant response rating, Galium ([20]; 16 g ai/ha, scale of 0 to 100): 75
Plant response rating, Galium ([20]; 31 g ai/ha, scale 0 to 100): 85
Galium plant response rating ([20]; 62 g ai/ha): 80
Galium plant response rating ([20]; 125 g ai/ha): 95
